Activity calls are given as the source filed them. The rule behind the calls is not given here.
Key:
[1] = Metabolic stability in human liver microsome assessed as half life measured up to 60 mins by LC-MS/MS analysis; type: ADME; conditions: liver microsomes
[2] = tested on: PANC-1; experiment: Cytotoxicity against human PANC-1 cells by MTT assay; type: functional, cell-based
[3] = tested on: BXPC-3; experiment: Cytotoxicity against human BXPC-3 cells by MTT assay; type: functional, cell-based
[4] = Cytotoxicity against mouse KPC2 cells by MTT assay; type: functional, cell-based
[5] = tested on: MIA PaCa-2; experiment: Antiproliferative activity against human MIA PaCa-2 cells harboring KRAS; type: functional, cell-based
[6] = tested on: BXPC-3; experiment: Cytotoxicity against human BXPC-3 cells harboring wild type KRAS; type: functional, cell-based
[7] = tested on: KPC2; experiment: Synergistic antiproliferative activity against mouse KPC2 cells at 0.01 to 3 uM in presence of MRTX1133; type: functional, cell-based; conditions: dose 0.01-3 µM
[8] = tested on: CT26; experiment: Synergistic antiproliferative activity against mouse CT26 cells at 0.01 to 3 uM in presence of MRTX1133; type: functional, cell-based; conditions: dose 0.01-3 µM
[9] = tested on: MIA PaCa-2; experiment: Synergistic antiproliferative activity against human MIA PaCa-2 cells assessed as inhibition of colony formation at up to 0.5 uM in presence of TTM; type: functional, cell-based
[10] = tested on: HCT-116; experiment: Synergistic antiproliferative activity against human HCT-116 cells assessed as inhibition of colony formation at up to 1 uM in presence of CuSO4; type: functional, cell-based
[11] = tested on: HCT-116; experiment: Synergistic antiproliferative activity against human HCT-116 cells assessed as inhibition of colony formation at up to 10 uM in presence of TTM; type: functional, cell-based
[12] = tested on: HCT-116; experiment: Synergistic antiproliferative activity against human HCT-116 cells assessed as inhibition of colony formation at up to 1 uM incubated for 6 days in presence of LY2603618; type: functional, cell-based; conditions: time 6.0 day
[13] = tested on: HCT-116; experiment: Synergistic antiproliferative activity against human HCT-116 cells assessed as inhibition of colony formation at up to 1 uM incubated for 6 days in presence of JQ-1; type: functional, cell-based; conditions: time 6.0 day
[14] = tested on: Panc02; experiment: Synergistic antiproliferative activity against mouse Panc02 cells assessed as inhibition of colony formation at up to 1 uM incubated for 6 days in presence of celecoxib; type: functional, cell-based; conditions: time 6.0 day
[15] = tested on: HCT-116; experiment: Synergistic antiproliferative activity against human HCT-116 cells assessed as inhibition of colony formation at up to 1 uM incubated for 6 days in presence of MK-663; type: functional, cell-based; conditions: time 6.0 day
[16] = tested on: BXPC-3; experiment: Synergistic antiproliferative activity against human BXPC-3 cells assessed as inhibition of colony formation at up to 1 uM incubated for 6 days in presence of valdecoxib; type: functional, cell-based; conditions: time 6.0 day
[17] = tested on: PANC-1; experiment: Synergistic antiproliferative activity against human PANC-1 cells assessed as inhibition of colony formation at up to 1 uM incubated for 6 days in presence of valdecoxib; type: functional, cell-based; conditions: time 6.0 day
[18] = tested on: MIA PaCa-2; experiment: Induction of apoptosis in human MIA PaCa-2 cells assessed as increase in clonogenic survival up to 0.5 uM incubated for 6 days in presence of Z-VAD-FMK by crystal violet staining based analysis; type: functional, cell-based; conditions: time 6.0 day
[19] = tested on: BXPC-3; experiment: Induction of apoptosis in human BXPC-3 cells assessed as increase in clonogenic survival up to 0.5 uM incubated for 6 days in presence of necrostatin-1 by crystal violet staining based analysis; type: functional, cell-based; conditions: time 6.0 day
[20] = tested on: PANC-1; experiment: Antiproliferative activity against human PANC-1 cells assessed as cell death incubated for 6 hrs in presence of NS3694; type: functional, cell-based
[21] = tested on: MIA PaCa-2; experiment: Induction of apoptosis in human MIA PaCa-2 cells assessed as upregulation of cleaved PARP level at 10 uM measured for 48 hrs by Western blot analysis; type: functional, cell-based
[22] = tested on: MIA PaCa-2; experiment: Induction of apoptosis in human MIA PaCa-2 cells assessed as upregulation of caspase 9 level at 10 uM measured for 48 hrs by Western blot analysis; type: functional, cell-based
[23] = tested on: HCT-116; experiment: Induction of apoptosis in human HCT-116 cells assessed as upregulation of cleaved PARP level at 1 uM measured for 24 hrs in presence of CuSO4 by Western blot analysis; type: functional, cell-based
[24] = tested on: HCT-116; experiment: Induction of ferroptosis in human HCT-116 cells at up to 1 uM in presence of FIN56; type: functional, cell-based
[25] = tested on: HCT-116; experiment: Induction of ferroptosis in human HCT-116 cells assessed as cell death at up to 1 uM in presence of ferrostatin-1; type: functional, cell-based
[26] = tested on: MIA PaCa-2; experiment: Induction of ferroptosis in human MIA PaCa-2 cells assessed as cell death at up to 1 uM in presence of ferrostatin-1; type: functional, cell-based
[27] = tested on: HCT-116; experiment: Induction of ferroptosis in human HCT-116 cells assessed as change in GPX4 level at 5 to 10 uM incubated for 18 hrs by Western blot analysis; type: functional, cell-based; conditions: dose 5-10 µM
[28] = tested on: HCT-116; experiment: Induction of autophagy in human HCT-116 cells assessed as cell death at up to 1 uM incubated for 6 days in presence of chloroquine; type: functional, cell-based; conditions: time 6.0 day
[29] = Cmax in CD-1 mouse at 30 mg/kg, po measured up to 24 hrs by LC-MS/MS analysis; type: ADME, organism-based; conditions: in vivo
[30] = AUC in CD-1 mouse at 15 mg/kg, iv measured up to 24 hrs by LC-MS/MS analysis; type: ADME, organism-based; conditions: in vivo
[31] = AUC (0 to infinity) in CD-1 mouse at 15 mg/kg, iv measured up to 24 hrs by LC-MS/MS analysis; type: ADME, organism-based; conditions: in vivo
[32] = AUC (0 to infinity) in CD-1 mouse at 30 mg/kg, po measured up to 24 hrs by LC-MS/MS analysis; type: ADME, organism-based; conditions: in vivo
[33] = Half life in CD-1 mouse at 30 mg/kg, po measured up to 24 hrs by LC-MS/MS analysis; type: ADME, organism-based; conditions: in vivo
[34] = Clearance in CD-1 mouse at 15 mg/kg, iv measured up to 24 hrs by LC-MS/MS analysis; type: ADME, organism-based; conditions: in vivo
[35] = Oral bioavailability in CD-1 mouse at 30 mg/kg measured up to 24 hrs by LC-MS/MS analysis; type: ADME, organism-based; conditions: in vivo
[36] = Drug concentration in mouse plasma at 15 mg/kg, iv measured at 7 hrs; type: ADME, organism-based
[37] = Drug concentration in mouse plasma at 30 mg/kg, po measured at 24 hrs; type: ADME, organism-based
[38] = Drug concentration in mouse kidney at 15 mg/kg, iv measured at 24 hrs; type: ADME, organism-based; conditions: read-out: Ct
[39] = Drug concentration in mouse liver at 30 mg/kg, po measured at 24 hrs; type: ADME, organism-based; conditions: read-out: Ct
[40] = Toxicity in BALB/c mouse assessed as maximum tolerated dose at IV measured for 7 days; conditions: in vivo, time 7 day
[41] = Toxicity in BALB/c mouse assessed as liver damage at 20 mg/kg, po measured after 29 days by H and E staining based analysis; type: organism-based; conditions: in vivo, 696 h, time 29 day
[42] = Toxicity in C57BL/6 mouse assessed as body weight loss at 20 to 40 mg/kg, ip administered for 28 days; type: organism-based; conditions: in vivo, 672 h, dose 20-40 mg/kg, time 28 day
[43] = tested on: CT26; experiment: Antitumor activity against mouse CT26 cells implanted in BALB/c mouse assessed as tumor growth inhibition at 50 to 100 mg/kg, po administered for 14 days in presence of celecoxib; type: functional, organism-based; conditions: dose 50-100 mg/kg, time 14.0 day

In the case of `N[C@@H]1[C@H]2CN(c3cnc(C(=O)Nc4cc(F)cc5cccnc45)cn3)C[C@@H]12`, the half-life [1] is reported as over 1 h, the IC50 [2] is reported as 4.4 µM and the IC50 [3] is reported as over 10 µM. The IC50 [4] was 3.4 µM, the Activity [5] was “Active” and the Activity [6] was “inactive”. For the same compound, the Activity [7] was “Active”, the Activity [8] was “Active” and the Activity [9] was “Active”. For the same compound, the Activity [10] was “Active”, the Activity [11] was “Active” and the Activity [12] was “Active”. The Activity [13] was “Active”, the Activity [14] was “Active” and the Activity [15] was “Active”. The Activity [16] was “Active”, the Activity [17] was “Active” and the Activity [18] was “Active”. The Activity [19] was “Active”, the Activity [20] was “Active” and the Activity [21] was “Active”. The Activity [22] was “Active”, the Activity [23] was “Active” and the Activity [24] was “Active”. The Activity [25] was “inactive”, the Activity [26] was “inactive” and the Activity [27] was “Active”. For the same compound, the Activity [28] was “Active”, the Cmax [29] was 364 ng/mL and the AUC at 24 h [30] was 3420 ng·h/mL. For the same compound, the AUC(0-inf) [31] was 3450 ng·h/mL, the AUC(0-inf) [32] was 3810 ng·h/mL and the half-life [33] was 3.1 h. It also gave a clearance [34] of 72.5 mL/min/kg, a bioavailability [35] of 55.3% and a concentration at 7 h [36] of 98 ng/mL. The concentration at 24 h [37] was 7 ng/mL, the concentration at 24 h [38] was 53 ng/g and the concentration at 24 h [39] was 92 ng/g. For the same compound, the MTD at 168 h [40] was 140 mg/kg, the Activity [41] was “Non-toxic” and the Activity [42] was “Non-toxic”. The TGI [43] was “Active”.
In the case of `C[C@@H]1OCC2(CCN(c3cnc(C(=O)Nc4cc(F)cc5cccnc45)cn3)CC2)[C@@H]1N`, the half-life [1] is reported as over 1 h, the IC50 [2] is reported as 2.9 µM and the IC50 [3] is reported as 8.5 µM. The IC50 [4] was 1.9 µM, the Activity [5] was “Active” and the Activity [6] was “inactive”. The Activity [7] was “Active”, the Activity [8] was “Active” and the Activity [9] was “Active”. The Activity [10] was “Active”, the Activity [11] was “Active” and the Activity [12] was “Active”. For the same compound, the Activity [13] was “Active”, the Activity [14] was “Active” and the Activity [15] was “Active”. The Activity [16] was “Active”, the Activity [17] was “Active” and the Activity [18] was “Active”. For the same compound, the Activity [19] was “Active”, the Activity [20] was “Active” and the Activity [21] was “Active”. The Activity [22] was “Active”, the Activity [23] was “Active” and the Activity [24] was “Active”. For the same compound, the Activity [25] was “inactive”, the Activity [26] was “inactive” and the Activity [27] was “Active”. The Activity [28] was “Active”, the Cmax [29] was 1020 ng/mL and the AUC at 24 h [30] was 6010 ng·h/mL. It also gave an AUC(0-inf) [31] of 6090 ng·h/mL, an AUC(0-inf) [32] of 6800 ng·h/mL and a half-life [33] of 4.9 h. The clearance [34] was 37.7 mL/min/kg, the bioavailability [35] was 55.2% and the Activity [42] was “Non-toxic”.

Reference: ChEMBL document CHEMBL6109128, “Copper-KRAS-COX2 Axis: A Therapeutic Vulnerability in Pancreatic Cancer” (J Med Chem, 2025)
